Experimental data as given in paper PMC7714403 (JCI Insight, 2020).

Assays:
FAM20B = FAM20B (Homo sapiens, UniProt O75063); test: KiNativ, OCI cells live cell; format: cell-based; details: 2 h, labeling site ATP, peptide […]
HPK1 = HPK1 (Homo sapiens, UniProt Q92918); test: KiNativ, OCI cells live cell; format: cell-based; details: 2 h
NEK2 = NEK2 (Homo sapiens, UniProt P51955); test: KiNativ, OCI cells live cell; format: cell-based; details: 2 h, labeling site Lys2, peptide […]
ACK1 [1] = biological target: T1, ACK1 (Homo sapiens, UniProt Q07912); test: KdELECT binding assay; parameters: purchased Eurofins DiscoverX
T1 sequence (Q07912 whole entry): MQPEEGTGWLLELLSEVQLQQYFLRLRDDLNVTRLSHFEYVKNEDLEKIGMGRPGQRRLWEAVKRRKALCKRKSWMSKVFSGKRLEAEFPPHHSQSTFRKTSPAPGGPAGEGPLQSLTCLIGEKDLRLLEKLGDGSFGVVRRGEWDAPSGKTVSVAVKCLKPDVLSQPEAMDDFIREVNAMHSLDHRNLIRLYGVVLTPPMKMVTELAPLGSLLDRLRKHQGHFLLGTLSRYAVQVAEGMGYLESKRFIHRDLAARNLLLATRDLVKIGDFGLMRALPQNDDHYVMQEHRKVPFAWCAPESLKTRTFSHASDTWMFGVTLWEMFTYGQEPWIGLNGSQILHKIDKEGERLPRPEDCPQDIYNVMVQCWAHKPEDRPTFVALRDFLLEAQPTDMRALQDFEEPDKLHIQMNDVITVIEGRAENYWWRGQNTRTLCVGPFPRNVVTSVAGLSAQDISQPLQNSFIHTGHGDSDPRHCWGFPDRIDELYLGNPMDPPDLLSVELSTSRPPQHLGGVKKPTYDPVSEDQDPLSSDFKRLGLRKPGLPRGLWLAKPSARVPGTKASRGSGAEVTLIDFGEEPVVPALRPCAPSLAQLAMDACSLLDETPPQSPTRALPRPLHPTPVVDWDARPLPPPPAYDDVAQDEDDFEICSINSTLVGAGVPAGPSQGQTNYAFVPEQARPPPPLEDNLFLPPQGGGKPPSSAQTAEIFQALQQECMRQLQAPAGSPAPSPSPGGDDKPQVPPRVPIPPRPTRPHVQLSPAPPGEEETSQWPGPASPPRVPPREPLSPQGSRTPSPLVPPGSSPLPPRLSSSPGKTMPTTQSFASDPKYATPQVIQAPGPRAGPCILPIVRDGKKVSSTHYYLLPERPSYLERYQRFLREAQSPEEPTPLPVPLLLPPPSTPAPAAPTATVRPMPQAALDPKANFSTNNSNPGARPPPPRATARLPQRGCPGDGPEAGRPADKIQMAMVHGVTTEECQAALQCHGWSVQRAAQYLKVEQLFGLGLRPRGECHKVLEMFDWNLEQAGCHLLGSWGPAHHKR

FLT3 ITD = FLT3 ITD (Homo sapiens, UniProt P36888, ITD); test: Kinase assay by Reaction Biology; format: biochemical; details: enzymatic kinase assay
FLT3 ITD, sequence (P36888 564-993, change not shown): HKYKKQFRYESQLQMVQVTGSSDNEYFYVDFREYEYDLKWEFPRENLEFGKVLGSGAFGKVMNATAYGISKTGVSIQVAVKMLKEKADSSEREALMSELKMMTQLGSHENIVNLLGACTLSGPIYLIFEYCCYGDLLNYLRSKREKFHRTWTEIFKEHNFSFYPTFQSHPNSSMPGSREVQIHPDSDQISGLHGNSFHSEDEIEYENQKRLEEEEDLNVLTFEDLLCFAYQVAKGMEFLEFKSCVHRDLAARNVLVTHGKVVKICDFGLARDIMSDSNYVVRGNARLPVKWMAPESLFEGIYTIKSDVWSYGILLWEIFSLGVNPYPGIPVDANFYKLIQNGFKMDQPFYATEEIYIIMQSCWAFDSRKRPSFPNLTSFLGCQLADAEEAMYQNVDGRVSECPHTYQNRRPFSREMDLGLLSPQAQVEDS

JNK1, JNK2, JNK3 = test: KiNativ, OCI cells live cell; format: cell-based, human; details: labeling site Lys2, peptide DLKPSNIVVK
Erk1 = Erk1 (Homo sapiens, UniProt P27361); test: KiNativ, OCI cells live cell; format: cell-based; details: 2 h, labeling site Lys2, peptide […]
CASK = CASK (Homo sapiens, UniProt O14936); test: KiNativ, OCI cells live cell; format: cell-based; details: 2 h, labeling site Lys1, peptide […]
JAK3 = biological target: T2, JAK3 (Homo sapiens, UniProt P52333); test: KdELECT binding assay
T2 construct: purchased Eurofins DiscoverX

MAP2K6 = biological target: T3, MAP2K6 (Homo sapiens, UniProt P52564); test: KiNativ, OCI cells live cell; format: cell-based; details: 2 h
T3 sequence (P52564 1-334): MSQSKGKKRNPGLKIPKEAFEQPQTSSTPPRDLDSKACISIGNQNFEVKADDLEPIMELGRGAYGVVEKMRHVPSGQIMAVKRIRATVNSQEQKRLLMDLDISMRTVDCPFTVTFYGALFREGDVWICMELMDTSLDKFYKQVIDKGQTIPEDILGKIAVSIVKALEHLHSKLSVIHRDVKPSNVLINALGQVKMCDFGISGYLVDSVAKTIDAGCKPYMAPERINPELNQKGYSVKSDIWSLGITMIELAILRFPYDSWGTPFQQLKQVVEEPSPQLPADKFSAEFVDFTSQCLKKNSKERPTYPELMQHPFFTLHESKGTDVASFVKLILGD

PIP5K3 = PIP5K3 (Homo sapiens, UniProt Q9Y2I7); test: KiNativ, MOLM13 live cells; format: cell-based; details: 100 nM, 2 hours; ATP
Procedure: (§1) Samples were analyzed by KiNativ in situ kinase profiling by ActivX Biosciences.

MAP3K5 = MAP3K5 (Homo sapiens, UniProt Q99683); test: KiNativ, MOLM13 live cells; format: cell-based; details: MOLM-13; 100 nM, 2 hours; Lys2; read-out: Inhibition vs DMSO
MAP3K5, sequence (Q99683 whole entry): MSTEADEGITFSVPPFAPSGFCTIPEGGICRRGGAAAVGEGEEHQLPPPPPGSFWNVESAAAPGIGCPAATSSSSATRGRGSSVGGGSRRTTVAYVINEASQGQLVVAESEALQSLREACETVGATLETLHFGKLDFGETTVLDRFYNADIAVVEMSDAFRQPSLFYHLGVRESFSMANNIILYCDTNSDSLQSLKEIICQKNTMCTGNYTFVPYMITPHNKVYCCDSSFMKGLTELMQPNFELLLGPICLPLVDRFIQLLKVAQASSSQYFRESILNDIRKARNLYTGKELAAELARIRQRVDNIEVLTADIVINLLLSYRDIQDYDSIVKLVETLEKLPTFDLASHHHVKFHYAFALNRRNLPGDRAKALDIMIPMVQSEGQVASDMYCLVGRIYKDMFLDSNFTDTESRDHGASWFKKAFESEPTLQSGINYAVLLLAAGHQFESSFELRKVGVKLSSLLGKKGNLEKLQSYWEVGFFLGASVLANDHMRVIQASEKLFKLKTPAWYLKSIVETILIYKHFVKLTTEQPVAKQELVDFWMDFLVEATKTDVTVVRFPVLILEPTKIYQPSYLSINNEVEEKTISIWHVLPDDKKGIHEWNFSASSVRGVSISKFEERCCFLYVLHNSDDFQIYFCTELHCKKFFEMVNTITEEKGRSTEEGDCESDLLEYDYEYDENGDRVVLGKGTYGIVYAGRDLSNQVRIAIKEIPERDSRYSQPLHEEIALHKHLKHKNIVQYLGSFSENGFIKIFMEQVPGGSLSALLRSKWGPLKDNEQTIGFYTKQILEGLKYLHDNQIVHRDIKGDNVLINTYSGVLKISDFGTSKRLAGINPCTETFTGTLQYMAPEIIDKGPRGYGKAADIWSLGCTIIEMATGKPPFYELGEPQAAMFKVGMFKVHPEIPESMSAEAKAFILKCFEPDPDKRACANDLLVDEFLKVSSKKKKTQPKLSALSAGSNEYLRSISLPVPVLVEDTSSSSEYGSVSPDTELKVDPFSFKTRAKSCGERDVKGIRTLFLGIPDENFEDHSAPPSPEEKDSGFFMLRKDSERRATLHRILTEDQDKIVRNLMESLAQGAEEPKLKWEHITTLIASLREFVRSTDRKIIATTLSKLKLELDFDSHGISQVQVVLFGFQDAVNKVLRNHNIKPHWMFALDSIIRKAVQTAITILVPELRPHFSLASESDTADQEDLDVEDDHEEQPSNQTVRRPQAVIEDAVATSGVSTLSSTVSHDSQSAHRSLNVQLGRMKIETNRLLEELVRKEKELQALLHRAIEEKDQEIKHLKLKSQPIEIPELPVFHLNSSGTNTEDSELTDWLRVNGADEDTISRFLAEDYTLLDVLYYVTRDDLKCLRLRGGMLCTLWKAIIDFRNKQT
Procedure: as §1

RSK1 domain1 = biological target: T4, RSK1 domain1 (Homo sapiens, UniProt Q15418); test: KiNativ, MOLM13 live cells; format: cell-based; details: MOLM-13; 100 nM, 2 hours; Activation Loop; read-out: Inhibition vs DMSO
T4 construct: RSK1 domain1
Procedure: as §1

CDK2 = CDK2 (Homo sapiens, UniProt P24941); test: KiNativ, MOLM13 live cells; format: cell-based; details: 100 nM, 2 hours
Procedure: as §1

NEK4 = NEK4 (Homo sapiens, UniProt P51957); test: KiNativ, MOLM13 live cells; format: cell-based; details: MOLM-13; 100 nM, 2 hours; Lys2; read-out: Inhibition vs DMSO
Procedure: as §1

CRK7 = CRK7 (Homo sapiens, UniProt Q9NYV4); test: KiNativ, OCI cells live cell; format: cell-based; details: labeling site Lys2, peptide DIKCSNILLNNSGQIK
PI4KB = PI4KB (Homo sapiens, UniProt Q9UBF8); test: KiNativ, OCI cells live cell; format: cell-based; details: 2 h, labeling site ATP
PI4KB, sequence (Q9UBF8 whole entry): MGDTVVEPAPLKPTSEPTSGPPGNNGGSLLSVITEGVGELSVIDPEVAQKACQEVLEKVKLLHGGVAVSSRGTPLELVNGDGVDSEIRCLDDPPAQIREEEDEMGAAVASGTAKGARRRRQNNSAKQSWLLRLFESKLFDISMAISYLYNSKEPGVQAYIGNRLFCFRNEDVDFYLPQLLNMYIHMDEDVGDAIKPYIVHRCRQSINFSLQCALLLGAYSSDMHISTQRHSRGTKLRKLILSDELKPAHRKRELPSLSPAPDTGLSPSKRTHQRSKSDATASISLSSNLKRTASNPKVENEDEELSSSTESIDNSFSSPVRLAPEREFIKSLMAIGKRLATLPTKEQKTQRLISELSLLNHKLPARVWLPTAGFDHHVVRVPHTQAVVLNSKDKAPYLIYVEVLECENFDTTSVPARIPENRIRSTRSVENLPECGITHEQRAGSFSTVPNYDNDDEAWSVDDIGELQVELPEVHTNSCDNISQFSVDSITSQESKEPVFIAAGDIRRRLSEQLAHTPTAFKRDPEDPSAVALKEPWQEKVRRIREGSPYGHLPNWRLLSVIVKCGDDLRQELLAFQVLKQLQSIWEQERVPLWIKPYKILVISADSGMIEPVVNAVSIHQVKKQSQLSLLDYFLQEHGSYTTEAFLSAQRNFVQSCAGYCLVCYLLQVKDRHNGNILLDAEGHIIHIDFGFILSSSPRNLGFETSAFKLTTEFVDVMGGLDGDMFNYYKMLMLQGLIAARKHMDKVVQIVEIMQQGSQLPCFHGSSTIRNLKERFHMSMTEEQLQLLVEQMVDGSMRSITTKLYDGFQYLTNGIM

MAPKAPK3 = MAPKAPK3 (Homo sapiens, UniProt Q16644); test: KiNativ, OCI cells live cell; format: cell-based; details: 2 h, labeling site ATP Loop, peptide […]
ACK1 [2] = biological target: T1, ACK1; test: Kinase assay by Reaction Biology; format: biochemical; parameters: purchased Eurofins DiscoverX
CDK4 = CDK4 (Homo sapiens, UniProt P11802); test: KdELECT binding assay; parameters: purchased Eurofins DiscoverX
SLK = SLK (Homo sapiens, UniProt Q9H2G2); test: KiNativ, OCI cells live cell; format: cell-based; details: 2 h, labeling site Lys2, peptide […]

HPK1, sequence (Q92918 whole entry): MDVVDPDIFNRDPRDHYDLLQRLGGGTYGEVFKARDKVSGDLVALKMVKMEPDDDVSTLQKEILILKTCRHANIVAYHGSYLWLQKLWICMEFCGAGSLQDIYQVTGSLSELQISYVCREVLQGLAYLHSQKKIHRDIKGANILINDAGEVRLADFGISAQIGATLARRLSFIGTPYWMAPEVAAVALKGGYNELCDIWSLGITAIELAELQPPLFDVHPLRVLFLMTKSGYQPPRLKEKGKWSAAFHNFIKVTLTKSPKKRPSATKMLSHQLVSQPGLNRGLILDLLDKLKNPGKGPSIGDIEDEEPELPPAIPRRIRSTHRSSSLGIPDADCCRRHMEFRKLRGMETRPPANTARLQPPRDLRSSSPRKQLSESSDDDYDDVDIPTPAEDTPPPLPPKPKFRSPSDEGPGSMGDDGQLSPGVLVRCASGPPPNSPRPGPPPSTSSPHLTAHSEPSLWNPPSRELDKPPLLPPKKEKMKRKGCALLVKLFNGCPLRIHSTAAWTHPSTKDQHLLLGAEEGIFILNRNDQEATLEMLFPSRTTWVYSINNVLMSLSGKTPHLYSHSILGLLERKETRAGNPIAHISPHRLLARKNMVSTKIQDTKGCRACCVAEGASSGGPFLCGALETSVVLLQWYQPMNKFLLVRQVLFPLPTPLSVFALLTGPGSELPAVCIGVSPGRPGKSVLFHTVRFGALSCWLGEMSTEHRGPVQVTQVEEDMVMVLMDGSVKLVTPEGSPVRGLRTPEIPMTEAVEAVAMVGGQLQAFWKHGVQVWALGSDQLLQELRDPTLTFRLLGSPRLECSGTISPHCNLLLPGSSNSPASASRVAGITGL
FAM20B, sequence (O75063 whole entry): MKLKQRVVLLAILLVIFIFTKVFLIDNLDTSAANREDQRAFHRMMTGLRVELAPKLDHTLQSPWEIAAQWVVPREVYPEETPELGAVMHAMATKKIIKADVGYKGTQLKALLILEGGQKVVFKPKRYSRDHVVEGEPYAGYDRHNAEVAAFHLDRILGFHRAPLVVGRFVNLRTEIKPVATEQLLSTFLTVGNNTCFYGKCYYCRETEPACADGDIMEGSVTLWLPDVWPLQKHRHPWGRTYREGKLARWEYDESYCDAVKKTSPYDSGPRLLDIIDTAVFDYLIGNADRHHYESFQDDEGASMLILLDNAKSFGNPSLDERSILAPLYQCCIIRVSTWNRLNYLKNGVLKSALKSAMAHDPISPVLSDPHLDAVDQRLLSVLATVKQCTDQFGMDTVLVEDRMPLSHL

## CN1CCN(Cc2ccc(Nc3ncc(Cl)c(Nc4ccccc4S(=O)(=O)N(C)C)n3)cc2)CC1 [TP-0903]
FAM20B
  inhibition at 0.1 µM: 7.4%
HPK1; labeling site Lys1, peptide DKVSGDLVALKMVK
  inhibition at 0.1 µM: 81%
HPK1; labeling site Lys2, peptide DIKGANILINDAGEVR
  inhibition at 0.1 µM: 78.7%
NEK2
  inhibition at 0.1 µM: 23.6%
ACK1 [1]
  Kd: 7.3 nM
FLT3 ITD
  IC50: 3.9 nM
JNK1, JNK2, JNK3
  Inhibition: 14.0%
Erk1
  inhibition at 0.1 µM: 17.7%
CASK
  inhibition at 0.1 µM: 31.2%
JAK3
  Kd: < 5 nM
MAP2K6; labeling site Activation Loop, peptide MCDFGISGYLVDSVAKTIDAGCKPYMAPER
  inhibition at 0.1 µM: 8.8%
MAP2K6; labeling site Lys1, peptide HVPSGQIMAVKR
  inhibition at 0.1 µM: 28%
MAP2K6; labeling site Lys2, peptide DVKPSNVLINALGQVK
  inhibition at 0.1 µM: 18.6%
PIP5K3
  Inhibition vs DMSO: 50.9%
MAP3K5
  inhibition at 0.1 µM: 0.5%
RSK1 domain1
  inhibition at 0.1 µM: -3.8%
CDK2; Lys1
  Inhibition vs DMSO: 2.7%
CDK2; Lys2
  Inhibition vs DMSO: 16.8%
NEK4
  inhibition at 0.1 µM: -23.8%
CRK7
  Inhibition: 57.2%
PI4KB; peptide LLSVIVKCGDDLRQELLAFQVLK
  inhibition at 0.1 µM: -13.1%
PI4KB; peptide VPHTQAVVLNSKDK
  inhibition at 0.1 µM: -23.3%
MAPKAPK3
  inhibition at 0.1 µM: -28.5%
ACK1 [2]
  IC50: 30.7 nM
CDK4
  Kd: < 5 nM
SLK
  inhibition at 0.1 µM: 86.1%
